Reference: a melting point compilation (Tetko et al.; mined from patent text by program, amines drawn as free bases though some values may be those of a salt)

First: CN(C)C(=O)c1cccnc1SCc1ccccc1
Second: CC(=O)C1C(=O)CN(Cc2ccccc2)C1=O (stereo unspecified)
The melting point of the first is lower: 61 to 63 °C for the first, 74 to 75 °C for the second.

First: CCOCCNc1nc(Cl)nc(N[C@@H](C)c2ccccc2)n1
Second: COc1nc(I)cc(C(O)Cc2ccccc2)c1C (stereo unspecified)
The melting point of the first is higher: 103 °C for the first, 69 to 70 °C for the second.

First: O=[N+]([O-])c1cnn2cnc3ccccc3c12
Second: O=[N+]([O-])c1ccc2c(C3=CN4CCC3CC4)c[nH]c2c1
The melting point of the first is lower: 177 to 178 °C for the first, 274 to 276 °C for the second.

Compared with `CC(=O)SCC(CC(C)C)C(=O)NCCCCCC(N)=O` (stereo unspecified), `COC1=C(OC)C(=O)C(CCCCCCCCCC(=O)N[C@@H](CCSC)C(=O)O)=C(C)C1=O` is higher in melting point: 64 to 80 °C for the first, 83 to 85 °C for the second.

Compared with `Cc1c(NC(=O)c2cc3c(s2)C2CCC3C2)cccc1-c1cn(C)c(=O)c(Nc2ccc(C3C(=O)N(C)CCN3C)cc2)n1` (stereo unspecified), `COc1ccc(NC(=O)c2ccc([N+](=O)[O-])cc2NC(=O)c2ccc(C(C)(C)C)cc2)cc1` is higher in melting point: 178 to 179 °C for the first, 221 °C for the second.

First: CCCCCCC(C)(C)c1cc(O)c2c(c1)OC(C)(C)[C@@H]1CC=C(NC(C)=O)C[C@@H]21 (relative stereo)
Second: CCOC(=O)C1=C(CCl)N2CCOC2(C)C(C(=O)OC)C1c1ccccc1Cl (stereo unspecified)
The melting point of the first is higher: 186 to 188 °C for the first, 142 to 143 °C for the second.

Going from `C#CCOC(=O)C1=C(C)NC(C)=C(C(=O)OCC)C1c1ccccc1C` (stereo unspecified) to `CCOC(=O)C1=C(C)Nc2nc(N)nc(N)c2C1c1cccc([N+](=O)[O-])c1` (stereo unspecified), the melting point rises from 129 °C to 230 °C.

Compared with `C[C@H]1C=CC(S(=O)(=O)c2ccccc2)=C[C@H](C)[C@H]1O`, `CS(=O)(=O)c1ccc(C2=C(c3ccccc3)C(=NO)C2)cc1` is higher in melting point: 100 to 102 °C for the first, 146 to 148 °C for the second.

First: CCCNC(=O)C1(CCCCCSc2nc3ccc(OCC)cc3s2)c2ccccc2-c2ccccc21
Second: CCOP(=O)(CCCCC1(C(=O)NCC(F)(F)F)c2ccccc2-c2ccccc21)OCC
The melting point of the first is lower: 54 to 56 °C for the first, 87 to 89 °C for the second.

First: C=C(C)CN(CC(=O)O)c1c(N)c(=O)c1=O
Second: O=C(O)CC(=O)Nc1ccccc1C(=O)O
The melting point of the first is higher: 184 to 186 °C for the first, 171 to 173 °C for the second.

Compared with `COc1ccc2c(c1)C(=O)OC2C(Cl)(Cl)Cl` (stereo unspecified), `COc1ccc2c(c1)CC(n1cc[nH]c1=S)CC2` (stereo unspecified) is higher in melting point: 134 to 136 °C for the first, 271 to 273 °C for the second.

First: COc1cc(Oc2cccc(C(F)(F)F)c2)nc(C(=O)NC2CC2)c1
Second: CON(C)C(=O)Nc1ccc(Oc2ccc3ccccc3c2)c(C(F)(F)F)c1
The melting point of the first is lower: 106 to 109 °C for the first, 129 to 130 °C for the second.

Compared with `O=C1N(c2cc(Cl)cc(Cl)c2)C(=O)C2(Cc3ccc(Br)cc3)CC(F)(F)CN12` (stereo unspecified), `CC(=O)NCc1ccc(/C=C/C(c2cc(Cl)cc(Cl)c2)C(F)(F)F)cc1` (stereo unspecified) is lower in melting point: 160 °C for the first, 107 to 109 °C for the second.

First: NC(=O)N(O)Cc1ccc(N2CCC3(CC2)OCCO3)cc1
Second: Oc1ccc(N2CCN(CC[C@H]3CC[C@H](Nc4ncccn4)CC3)CC2)cc1
The melting point of the first is lower: 153 to 154 °C for the first, 192 to 194 °C for the second.

Compared with `O=C(O)c1cc(O)c(I)c(O)c1`, `O=c1[nH]cnc2cc(O)c(O)cc12` is higher in melting point: 245 to 248 °C for the first, greater than 250 °C for the second.

First: CCn1c(=O)c2ccc(C(=O)O)cc2n(Cc2ccc(Cl)cc2Cl)c1=O
Second: COC(=O)CCCc1cc2cc(Cl)ccc2n1S(=O)(=O)c1cc(C)cc(C)c1
The melting point of the first is higher: 238 to 240 °C for the first, 140 to 143 °C for the second.

First: O=c1[nH]c2cc(Cl)ccc2n(C2CCCCC2)c1=O
Second: O=C(c1ccco1)N1CCN[C@@H]2CCCC[C@@H]21
The melting point of the first is higher: 265 to 266 °C for the first, 47 to 50 °C for the second.

First: CS(=O)(=O)Oc1ccc(-c2cc3ccc(OS(C)(=O)=O)cc3s2)cc1
Second: COc1ccc(-c2ccc(-c3cc(NC(Cc4ccccc4)C(=O)O)ncn3)cc2)cc1 (stereo unspecified)
The melting point of the first is higher: 195 to 197 °C for the first, 123 to 125 °C for the second.

First: CCc1nc(-c2cccc(C)c2)c(-c2ccnc(NC3CCCC3)c2)s1
Second: c1cnc2ccc(Cn3nnc4ccc(-c5cnn(C6CCOCC6)c5)nc43)cc2c1
The melting point of the first is lower: 117 to 118 °C for the first, 182 to 184 °C for the second.

Compared with `CC(C)(Cl)CC(N)C(=O)NC(C(=O)Nc1ccccc1)C(=O)c1ccccc1` (stereo unspecified), `CCOC(=O)NN=C(c1ccccc1)c1ccncc1` is higher in melting point: 145 to 147 °C for the first, 189 °C for the second.

First: CC(C)=C(C)CCC(C)C1CCC2(C)C3CCC4C(C)(C)C(O)CCC45CC35CCC12C (stereo unspecified)
Second: CN(C)c1c(O)ccc2c1CCC1C2CCC2(C)C(=O)CCC12 (stereo unspecified)
The melting point of the first is higher: 165 to 166 °C for the first, 155 to 156 °C for the second.

First: O=[N+]([O-])c1cc(I)cc(CF)c1
Second: COC(=O)c1cc(COS(C)(=O)=O)cc([N+](=O)[O-])c1
The melting point of the first is lower: 50.5 to 51.5 °C for the first, 96 to 97 °C for the second.

First: CCOC(=O)c1c(SCC)cc(C(F)(F)F)nc1C(F)(F)F
Second: CC(CCCCCCNC(=O)c1ccc(OC(F)(F)F)cc1)NC(=O)c1ccc(OC(F)(F)F)cc1 (stereo unspecified)
The melting point of the first is lower: 36 to 37.5 °C for the first, 137 to 138 °C for the second.

Compared with `COc1cc2c(ccn2S(C)(=O)=O)cc1Br`, `COc1ccc(Br)cc1OC(=O)c1ccccc1` is lower in melting point: 126 to 129 °C for the first, 73 to 75 °C for the second.

First: O=S(=O)(c1ccc(Cl)cc1)N1CCCC1c1cccs1 (racemic)
Second: Cc1ccccc1C(=O)Nc1ccc(C(=O)N2CCCC(N(C)S(C)(=O)=O)c3ccccc32)cc1 (stereo unspecified)
The melting point of the first is lower: 84 °C for the first, 197 to 198 °C for the second.

First: CCN1c2ncc(CSc3ccncc3)cc2C(=O)N(C)c2ccc(Cl)nc21
Second: O=c1c2c(F)cccc2nc(CSc2ncnc3[nH]cnc23)n1-c1ccccc1Cl
The melting point of the first is lower: 140 to 142 °C for the first, 223 to 224 °C for the second.

First: Cc1ccc(C2(O)c3c(C)c(N)c(C)c(C)c3OC2(C)C)cc1 (stereo unspecified)
Second: CC1(C)OC(=S)Nc2ccc(-c3cccc(Cl)c3)cc21
The melting point of the first is lower: 165 to 166 °C for the first, 183 to 184 °C for the second.

Compared with `CC1(C)CCC(C)(C)c2cc(-c3cc(-c4ccc(C(N)=O)cc4-c4ccc(O)cc4)ccc3-c3ccccc3)ccc21`, `CCc1ccc(-c2ccc(C(=O)c3ccccc3)cc2)cc1` is lower in melting point: 231 °C for the first, 106 to 108 °C for the second.

First: O=c1oc(-c2ccccc2)cc(O)c1SCc1cccc(OCCc2ccccc2)c1
Second: O=C(Nc1ccc(Oc2cccc(Cl)c2)c(Cl)c1)c1ccccn1
The melting point of the first is lower: 85 to 90 °C for the first, 91.5 to 93.5 °C for the second.

Compared with `CCCOc1cc2[nH]c(=O)[nH]c(=O)c2cc1OC`, `CC(=O)OC1c2ccccc2-c2[nH]c(=O)c(=O)[nH]c21` (stereo unspecified) is higher in melting point: 259 to 261 °C for the first, greater than 300 °C for the second.

Compared with `C[C@@H](Cc1c2n(c3cc(F)c(O)cc13)CCC2)NC(=O)OC(C)(C)C`, `CCc1c2nc(-c3cc(S(C)(=O)=O)ccc3OCC(C)C)[nH]c(=O)c2nn1C1CCN(C(C)C)CC1` is higher in melting point: 198 to 199 °C for the first, 273 to 275 °C for the second.

First: Cc1ccccc1C1CCN(C(=O)CCC(=O)c2ccc3c(c2)CCNCC3)CC1
Second: CCOC(=O)Cc1ccc2c(c1)C(=O)c1ccccc1CN2
The melting point of the first is lower: 93 to 95 °C for the first, 98 to 100 °C for the second.

First: C=CCSc1nc2cc(C)c(C)cc2[nH]1
Second: CCOC(=O)C(=CNc1cccnc1OC)C(=O)OCC
The melting point of the first is higher: 119 to 120 °C for the first, 65 °C for the second.

Compared with `Cc1cccc2c(Nc3cccc(OCCCCN(CCCl)CCCl)c3)c3cccc(C(=O)NCCN(C)C)c3nc12`, `Cc1cn(-c2ccc(C(=N)N)cc2)c(=O)n1-c1ccc(CCC(=O)OC(C)C)cc1` is higher in melting point: 131 to 132 °C for the first, 246 to 249 °C for the second.

First: O=C1ONCC12CCOc1ccc(F)cc12 (stereo unspecified)
Second: CC#CCOc1cc(N(C)c2ccccc2)ncn1
The melting point of the first is higher: 153 to 155 °C for the first, 57.6 °C for the second.

In the case of `FC1CN(C(c2ccccc2)c2ccccc2)C1`, the melting point is reported as 154 to 156 °C.
